Patent US6815205B2, “Auxinic analogues of indole-3-acetic acid” (Invitrogen Corporation, priority 1995, dated 2004)

Columns and labels:
Arabidopsis thaliana = test system: Arabidopsis thaliana
Procedure: Seeds of Arabidopsis thaliana ecotypes Columbia and Landersberg ereta are provided by Dr. Keith Davis (The Ohio State University, Columbus). Tissues of hypocotyl are removed from 10-day-old seedlings, transferred to MS complete medium containing (1) different concentrations of IAA or IAA analogue with different concentrations of N^6.(Δ2Isopentenyl) adenine (2iP) and (2) different concentrations of IAA analogue with different concentrations of 2iP, BAP, or kinetin. The explants are incubated at 23° C. using an 18 h light/6 h dark cycle until the formation of green calli and shoots.

[1] = disclosed in copending U.S. application Ser. No. 08/430,209; cited from earlier work
transformed tobacco = assay: Regeneration of Agrobacterium-mediated transformed tobacco tissue under kanamycin selection; assay type: cell-based; settings: in the presence of BAP; 100 mg/l kanamycin
Procedure: (§1) These IAA analogues were further evaluated for their abilities to effect the regeneration of plant tissues comprising foreign DNA. Tobacco and potato tissues were subjected to Agrobacterium-mediated transformation techniques, including cocultivation with Agrobacterium containing pBI121 and selecting with MS complete medium containing 0.5 mg/l BAP, 2 mg/l IAA derivative and 100 mg/l kanomycin.
(§2) Agrobacterium-mediated plant transformation was performed as described by Lin et al. (1994) Focus 16:72-77. For example:
In tobacco, the leaf discs were incubated with 10^9 cells/ml of Agrobacterium tumefaciens LBA4404 cells containing pBI121 in MS complete medium with 0.5 mg/l MES for 10 minutes, transferred to solid MS complete medium, and incubated for two days at 25° C., using an 18 hour light/6 hour dark cycle for cocultivation. After cocultivation, the explants were transferred to the MS medium containing a different ratio of BAP/IAA or BAP/IAA analogue, 100 mg/l kanamycin and 500 mg/l carbenicillin and incubated at 25° C. using an 18 hour light/6 hour dark cycle for shoot formation.

transformed potato = assay: Regeneration of Agrobacterium-mediated transformed potato tissue under kanamycin selection; assay type: cell-based; design: key to Potato Callus (regeneration of transformed tissue): +(−) means preliminary observation; settings: 100 mg/l kanamycin; for regeneration of kanamycin resistant calli in transformed potato: in the presence of BAP; for Potato Callus (regeneration of transformed tissue): BAP 0.5 mg/l, 2 mg/l IAA derivative, Agrobacterium pBI121
Procedure: as §1
Plant transformation in potato stems is carried out as described above in section (a) for tobacco.
as §2
In another example, potato leaf discs were transformed with the Agrobacterium-mediation technique as described above for tobacco. The potato explants were then subjected to incubation with IAA analogues in the absence and presence of cytokinin to screen for auxinic activities.

tobacco leaf discs [2] = assay: Regeneration of roots or calli from tobacco leaf explants, MS complete medium with auxin only; assay type: cell-based, Nicotiana tobaccum Xanthi; design: key to Tobacco Callus (regeneration): +(−) means preliminary observation; settings: for Tobacco Callus (regeneration): Auxins 2 mg/l, no cytokinin, MS complete medium
Procedure: (§3) In particular embodiments of the invention, various IAA analogues were screened for auxinic activity by incubating different plant tissues, e.g., tobacco and tomato leaf discs and potato stems in (a) MS complete medium (obtained from Life Technologies, Inc., Gaithersburg, Md.) containing different concentrations of auxin only and (2) the MS complete auxin medium containing different ratios of cytokinin/auxin.
(§4) In another embodiment of the invention, IAA analogues were screened for auxinic activity. […] Table 1 documents the ability of the different IAA analogues to stimulate the regeneration of roots or calli from tobacco, tomato and potato. In general, IAA analogues having a bromine substitution at the 2
Seeds of Nicotiana tobaccum Xanthi are provided by Dr. James Saunders (USDA, Beltsville, Md.). Young tobacco leaves are removed and cut into small pieces.
The regeneration of plant tissues using tissue culture depends on plant hormones such as auxin and cytokinin. It is known that the presence of an auxin in plant tissue cultured on Murashige and Skoog (MS) medium (Murashige, T. and F. Skoog (1962) Physiol. Plant 15:473-497) stimulates the formation of root structure whereas the formation of callus is observed when not only the auxin but also a cytokinin complement the MS nutrient medium. Therefore, evaluation of a test compound as a potential new auxin is performed by incubating tobacco leaf discs in (a) the MS complete medium containing different concentrations of auxin only and (b) the MS complete medium containing different ratios of cytokinin to auxin concentrations (cytokinin/auxin).
(§5) Young tobacco leaves, potato stems, tomato leaves and cassava leaves and stems from one-month-old plants were removed and cut into small pieces. The explants were incubated on (1) the MS complete medium containing different concentrations of auxin related compounds only (2) the MS complete medium containing different concentrations of auxin-related compounds and 0.5 mg/l benzylaminopurine (BAP) using an 18 hour light/6 hour dark cycle until the formation of green calli, shoots or roots.

potato stems [3] = assay: Regeneration of roots or calli from potato stem explants, MS complete medium with auxin only; assay type: cell-based; design: key to Potato Roots (regeneration): +(−) means preliminary observation; settings: for root formation in potato stems: absence of BAP
Procedure: as §3, §4
Potato seeds of variety “Kent V. F.” are provided by Dr. James Saunders (USDA, Beltsville, Md.). Young potato stems are removed and cut into small pieces. Explants are incubated in MS complete medium with auxin in the presence or absence of cytokinin as described in section (a) above for tobacco.
as §5

tobacco leaf discs [4] = assay: Regeneration of shoots or calli from tobacco leaf explants, auxin together with cytokinin (BAP); assay type: cell-based, Nicotiana tobaccum Xanthi; design: key to Tobacco Callus (regeneration): +(−) means preliminary observation
Procedure: In particular embodiments of the invention, various IAA analogues were screened for auxinic activity by incubating different plant tissues, e.g., tobacco and tomato leaf discs and potato stems in (a) MS complete medium (obtained from Life Technologies, Inc., Gaithersburg, Md.) containing different concentrations of auxin only and (2) the MS complete auxin medium containing different ratios of cytokinin/auxin. These IAA derivatives were further evaluated for auxinic activity in the presence of a cytokinin. […] Incubation of plant tissues Seeds of Nicotiana tobaccum Xanthi are provided by Dr. James Saunders (USDA, Beltsville, Md.). Young tobacco leaves are removed and cut into small pieces. […] The regeneration of plant tissues using tissue culture depends on plant hormones such as auxin and cytokinin. It is known that the presence of an auxin in plant tissue cultured on Murashige and Skoog (MS) medium (Murashige, T. and F. Skoog (1962) Physiol. Plant 15:473-497) stimulates the formation of root structure whereas the formation of callus is observed when not only the auxin but also a cytokinin complement the MS nutrient medium. […]

potato stems [5] = assay: Regeneration of shoots or calli from potato stem explants, auxin together with cytokinin (BAP); assay type: cell-based; design: key to Potato Callus (regeneration): +(−) means preliminary observation
Procedure: In particular embodiments of the invention, various IAA analogues were screened for auxinic activity by incubating different plant tissues, e.g., tobacco and tomato leaf discs and potato stems in (a) MS complete medium (obtained from Life Technologies, Inc., Gaithersburg, Md.) containing different concentrations of auxin only and (2) the MS complete auxin medium containing different ratios of cytokinin/auxin. These IAA derivatives were further evaluated for auxinic activity in the presence of a cytokinin. […] Incubation of plant tissues Potato seeds of variety “Kent V. F.” are provided by Dr. James Saunders (USDA, Beltsville, Md.). Young potato stems are removed and cut into small pieces. Explants are incubated in MS complete medium with auxin in the presence or absence of cytokinin as described in section (a) above for tobacco. Young tobacco leaves, potato stems, tomato leaves and cassava leaves and stems from one-month-old plants were removed and cut into small pieces. The explants were incubated on (1) the MS complete medium containing different concentrations of auxin related compounds only (2) the MS complete medium containing different concentrations of auxin-related compounds and 0.5 mg/l benzylaminopurine (BAP) using an 18 hour light/6 hour dark cycle until the formation of green calli, shoots or roots.

tomato leaf discs [6] = assay: Regeneration of roots or calli from tomato leaf explants, MS complete medium with auxin only; assay type: cell-based; settings: 0.5, 2.0 and 8.0 mg/l, absence of BAP
Procedure: as §3, §4
Tomato seeds of variety “Moneymaker” are provided by Dr. James Saunders (USDA, Beltsville, Md.). Young tomato leaves are removed and cut into small pieces. Explants are incubated in MS complete medium with auxin in the presence or absence of cytokinin as described in section (a) above for tobacco.
Young tobacco leaves, potato stems, tomato leaves and cassava leaves and stems from one-month-old plants were removed and cut into small pieces. […]

tomato leaf discs [7] = assay: Regeneration of shoots or calli from tomato leaf explants, auxin together with cytokinin (BAP); assay type: cell-based; settings: 0.5, 2.0 or 8.0 with 0.5 mg/l BAP
Procedure: In particular embodiments of the invention, various IAA analogues were screened for auxinic activity by incubating different plant tissues, e.g., tobacco and tomato leaf discs and potato stems in (a) MS complete medium (obtained from Life Technologies, Inc., Gaithersburg, Md.) containing different concentrations of auxin only and (2) the MS complete auxin medium containing different ratios of cytokinin/auxin. These IAA derivatives were further evaluated for auxinic activity in the presence of a cytokinin. […] Incubation of plant tissues Tomato seeds of variety “Moneymaker” are provided by Dr. James Saunders (USDA, Beltsville, Md.). Young tomato leaves are removed and cut into small pieces. Explants are incubated in MS complete medium with auxin in the presence or absence of cytokinin as described in section (a) above for tobacco. Young tobacco leaves, potato stems, tomato leaves and cassava leaves and stems from one-month-old plants were removed and cut into small pieces. The explants were incubated on (1) the MS complete medium containing different concentrations of auxin related compounds only (2) the MS complete medium containing different concentrations of auxin-related compounds and 0.5 mg/l benzylaminopurine (BAP) using an 18 hour light/6 hour dark cycle until the formation of green calli, shoots or roots.

Q: With 5-bromo-IAA as the molecule, how does the “effectiveness in stimulating the regeneration of green calli, relative to IAA” value (Arabidopsis thaliana) read?
A: between two and four times more effective than IAA

Q: And the “callus and shoot formation in combination with cytokinin” value [1]?
A: both callus and shoot formation are observed

Q: With O=C(O)Cc1c[nH]c2ccc(Cl)cc12 [5-ClIAA, 5-chloroindole-3-acetic acid] as the molecule, how does the “regeneration of kanamycin resistant calli and shoots in transformed tobacco” value (from here on “regeneration … in transformed tobacco”) (transformed tobacco) read?
A: stimulated

Q: And the “regeneration of kanamycin resistant calli in transformed potato” value (“regeneration … in transformed potato” for short) (transformed potato)?
A: stimulated

Q: For CCc1ccc2[nH]cc(CC(=O)O)c2c1 [5-EtIAA, 5-ethylindole-3-acetic acid], which “Tobacco Callus (regeneration)” value (tobacco leaf discs [2]) is on record?
A: +(−)

Q: What about the “regeneration … in transformed tobacco” value (transformed tobacco) of the same molecule?
A: stimulated

Q: What about the “regeneration … in transformed potato” value (transformed potato) of the same molecule?
A: stimulated

Q: Which “Tobacco Callus (regeneration)” value (tobacco leaf discs [2]) does the source give for O=C(O)Cc1c[nH]c2ccc(I)cc12 [5-IIAA, 5-iodoindole-3-acetic acid] here?
A: +(−)

Q: What about the “Potato Roots (regeneration)” value (potato stems [3]; Auxins 2 mg/l, no cytokinin, MS complete medium) of the same molecule?
A: +(−)

Q: And the “Tobacco Callus (regeneration)” value (tobacco leaf discs [4]; BAP 0.5 mg/l + Auxins 2 mg/l)?
A: +(−)

Q: What about the “Potato Callus (regeneration)” value (potato stems [5]; BAP 0.5 mg/l + Auxins 2 mg/l) of the same molecule?
A: +(−)

Q: For COc1ccc2[nH]cc(CC(=O)O)c2c1 [5-MeoIAA, 5-methoxyindole-3-acetic acid], which “regeneration … in transformed tobacco” value (transformed tobacco) is on record?
A: stimulated

Q: And the “regeneration … in transformed potato” value (transformed potato)?
A: stimulated

Q: Which results are given for O=C(O)Cc1c[nH]c2cc(Br)ccc12 [6-BrIAA, 6-bromoindole-3-acetic acid]?
A: growth response of tobacco leaf discs (tobacco leaf discs [2]; different concentrations, absence of BAP): both the formation of roots and the formation of calli were observed; growth response of tomato leaf discs (tomato leaf discs [6]): only root formation was observed; root formation in potato stems (potato stems [3]): root formation was diminished; root formation in potato stems (potato stems [3]; concentration increased from 0.5 to 2.0 mg/l): root formation increased; growth response of tobacco leaf discs (tobacco leaf discs [4]; different concentrations, presence of BAP): the formation of both shoots and calli occurred; growth response of tomato leaf discs (tomato leaf discs [7]): calli, not roots, were formed; growth response of potato stems (potato stems [5]; 0.5, 2.0, 8.0 mg/l with BAP 0.5 mg/l): callus formation was observed at all ratios of cytokinin/auxin

Q: With O=C(O)Cc1c[nH]c2c(Br)cccc12 [7-BrIAA, 7-bromoindole-3-acetic acid] as the molecule, how does the “regeneration … in transformed tobacco” value (transformed tobacco) read?
A: stimulated

Q: What about the “Potato Callus (regeneration of transformed tissue)” value (transformed potato) of the same molecule?
A: +(−)

Q: What about the “regeneration … in transformed potato” value (transformed potato) of the same molecule?
A: stimulated

Q: With CCc1cccc2c(CC(=O)O)c[nH]c12 [7-EtIAA, 7-ethylindole-3-acetic acid] as the molecule, how does the “regeneration … in transformed tobacco” value (transformed tobacco) read?
A: stimulated

Q: And the “Potato Callus (regeneration of transformed tissue)” value (transformed potato)?
A: +(−)

Q: What about the “regeneration … in transformed potato” value (transformed potato) of the same molecule?
A: stimulated

Q: Which “regeneration … in transformed tobacco” value (transformed tobacco) does the source give for O=C(O)Cc1c[nH]c2c(F)cccc12 [7-FIAA, 7-fluoroindole-3-acetic acid] here?
A: stimulated

Q: What about the “Potato Callus (regeneration of transformed tissue)” value (transformed potato) of the same molecule?
A: +(−)

Q: What about the “regeneration … in transformed potato” value (transformed potato) of the same molecule?
A: stimulated
